# Data reported in US20240239752A1, “BICYCLIC HETEROAROMATIC INHIBITORS OF KLK5” (BioCryst Pharmaceuticals, Inc., priority 2021, published 2024).
# Biological target: T1, recombinant human KLK5 (Homo sapiens, UniProt Q9Y337)
# T1 construct: purchased Novoprotein or R&D Systems C415 or 1108-SE
# T1 sequence (Q9Y337 23-293): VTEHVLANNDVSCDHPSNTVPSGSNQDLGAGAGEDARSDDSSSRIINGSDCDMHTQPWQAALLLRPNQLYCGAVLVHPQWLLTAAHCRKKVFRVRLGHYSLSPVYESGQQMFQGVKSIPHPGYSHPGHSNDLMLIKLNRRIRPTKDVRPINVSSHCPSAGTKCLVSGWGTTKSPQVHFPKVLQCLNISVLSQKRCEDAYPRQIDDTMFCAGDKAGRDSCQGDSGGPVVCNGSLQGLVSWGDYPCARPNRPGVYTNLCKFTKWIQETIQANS
# Experiment: Kallikrein (KLK) 5 enzymatic assay (Boc-VPR-AMC fluorogenic substrate)
# Type: biochemical
# Conditions: recombinant human KLK5 0.1 μg/well, Boc-VPR-AMC 100 μM, pH 7.5, room temperature, 1% DMSO; tested a minimum of three times
# Outline: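 Fluorogenic rate assay at pH 7.5 (0.1 M NaH2PO4, 1% DMSO, room temperature), run at least three times per compound. Compound was premixed with 0.1 μg/well recombinant human KLK5 before adding 100 μM Boc-VPR-AMC; AMC release was read at ex 380/em 460 nm, and IC50 derived from inhibition of rate vs DMSO control.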
row,SMILES,IC50 [nM]
1,"COc1ccc(CC(=O)O)c(OCc2c3cc(-c4ccc5ccnc(N)c5c4)ccc3nn2C2CCOC2)c1 (stereo not shown) [Compound 13c, 2-(2-((5-(1-aminoisoquinolin-7-yl)-2-(tetrahydrofuran-3-yl)-2H-indazol-3-yl)methoxy)-4-methoxyphenyl)acetic acid]",1000 to 10000
2,"COC(=O)N1CCC2(CC1)CC(Oc1c(C#N)cccc1CC(=O)O)c1cc(-c3cccc4c(N)nccc34)ccc12 (stereo not shown) [Compound 455b, 2-(2-((5-(1-aminoisoquinolin-5-yl)-1′-(methoxycarbonyl)-2,3-dihydrospiro[indene-1,4′-piperidin]-3-yl)oxy)-3-cyanophenyl)acetic acid]",1000 to 10000
3,"COc1ccc(CC(=O)O)c(OCc2c3cc(-c4cccc5c(N)nccc45)ccc3nn2C2CCC2)c1 [Compound 19c, 2-(2-((5-(1-aminoisoquinolin-5-yl)-2-cyclobutyl-2H-indazol-3-yl)methoxy)-4-methoxyphenyl)acetic acid]",1000 to 10000
4,"Cc1ccc(OCc2c3cc(-c4ccc5ccnc(N)c5c4)ccc3nn2C2CCC2)c(CC(=O)O)c1 [Compound 155d, 2-(2-((5-(1-aminoisoquinolin-7-yl)-2-cyclobutyl-2H-indazol-3-yl)methoxy)-5-methylphenyl)acetic acid]",1000 to 10000
5,"CC(C)n1nc(COc2ccccc2CC(=O)O)c2cc(-c3ccc4c(N)n[nH]c4c3)ccc21 [Compound 67c, 2-(2-((3′-amino-1-isopropyl-1H, 1′H-[5,6′-biindazol]-3-yl)methoxy)phenyl)acetic acid]",> 10000
6,"CC(C)n1nc(COc2ccccc2CC(=O)O)c2cc(-c3ccnc4c(N)cccc34)ccc21 [Compound 53c, 2-(2-((5-(8-aminoquinolin-4-yl)-1-isopropyl-1H-indazol-3-yl)methoxy)phenyl)acetic acid]",> 10000
7,"CC(C)n1nc(COc2ccccc2CC(=O)O)c2cc(-c3cccc(-c4c[nH]nc4N)c3)ccc21 [Compound 45c, 2-(2-((5-(3-(3-amino-1H-pyrazol-4-yl)phenyl)-1-isopropyl-1H-indazol-3-yl)methoxy)phenyl)acetic acid]",> 10000
8,"Cc1ccc2c(N)nccc2c1-c1ccc2c(c1)c(COc1ccccc1CC(=O)O)nn2C(C)C [Compound 78d, 2-(2-((5-(1-amino-6-methylisoquinolin-5-yl)-1-isopropyl-1H-indazol-3-yl)methoxy)phenyl)acetic acid]",1000 to 10000
9,"CC(C)n1nc(COc2ccccc2CC(=O)O)c2cc(-c3ccc4cc(Cl)nc(N)c4c3)ccc21 [Compound 46d, 2-(2-((5-(1-amino-3-chloroisoquinolin-7-yl)-1-isopropyl-1H-indazol-3-yl)methoxy)phenyl)acetic acid]",> 10000
10,"CC(C)n1nc(COc2ccccc2CC(=O)O)c2cc(-c3cccc4c(N)n[nH]c34)ccc21 [Compound 31c, 2-(2-((3′-amino-1-isopropyl-1H, 1′H-[5,7′-biindazol]-3-yl)methoxy)phenyl)acetic acid]",1000 to 10000
11,"COc1cc(-c2ccc3ccnc(N)c3c2)cc2c(COc3c(C)cccc3CC(=O)O)coc12 [Compound 237c, 2-(2-((5-(1-aminoisoquinolin-7-yl)-7-methoxybenzofuran-3-yl)methoxy)-3-methylphenyl)acetic acid]",> 10000
12,"COc1cc2nn(C3CCC3)c(COc3ccccc3CC(=O)O)c2cc1-c1cccc2c(N)nccc12 [Compound 270b, 2-(2-((5-(1-aminoisoquinolin-5-yl)-2-cyclobutyl-6-methoxy-2H-indazol-3-yl)methoxy)phenyl)acetic acid]",> 10000
13,"CC(C)n1nc(COc2ccccc2CC(=O)O)c2cc(-c3ccc4cnc(N)cc4c3)ccc21 [Compound 75c, 2-(2-((5-(3-aminoisoquinolin-6-yl)-1-isopropyl-1H-indazol-3-yl)methoxy)phenyl)acetic acid]",> 10000
14,"Nc1nccc2c(-c3ccc4nn(C5CN(CCO)C5)c(COc5ccccc5CC(=O)O)c4c3)cccc12 [Compound 123b, 2-(2-((5-(1-aminoisoquinolin-5-yl)-2-(1-(2-hydroxyethyl)azetidin-3-yl)-2H-indazol-3-yl)methoxy)phenyl)acetic acid]",1000 to 10000
15,"CC(C)n1nc(COc2ccccc2CC(=O)O)c2cc(-c3cccc(-c4nnc[nH]4)c3)ccc21 [Compound 52c, 2-(2-((5-(3-(4H-1,2,4-triazol-3-yl)phenyl)-1-isopropyl-1H-indazol-3-yl)methoxy)phenyl)acetic acid]",> 10000

# Results, then the molecule that gave them:
row,IC50 [nM],SMILES
1,< 1000,"CC(C)OC(=O)N1CCC2(CC1)CC(Oc1ccccc1CC(=O)O)c1cc(-c3cccc4c(N)nccc34)ccc12 (stereo not shown) [Compound 375b, 2-(2-((5-(1-aminoisoquinolin-5-yl)-1′-(isopropoxycarbonyl)-2,3-dihydrospiro[indene-1,4′-piperidin]-3-yl)oxy)phenyl)acetic acid]"
2,< 1000,"Nc1nccc2c(-c3ccc4c(c3)c(COc3ccccc3CC(=O)O)nn4CC3CCC3)cccc12 [Compound 252h, 2-(2-((5-(1-aminoisoquinolin-5-yl)-1-(cyclobutylmethyl)-1H-indazol-3-yl)methoxy)phenyl)acetic acid]"
3,< 1000,"Cc1ccc(CC(=O)O)c(O[C@@H]2CCc3ccc(-c4ccc5ccnc(N)c5c4)cc32)c1 [Compound 425c, (R)-2-(2-((6-(1-aminoisoquinolin-7-yl)-2,3-dihydro-1H-inden-1-yl)oxy)-4-methylphenyl)acetic acid]"
4,< 1000,"N#Cc1cccc(O[C@@H]2CCc3ccc(-c4cccc5c(N)nccc45)cc32)c1CC(=O)O [Compound 433b, (R)-2-(2-((6-(1-aminoisoquinolin-5-yl)-2,3-dihydro-1H-inden-1-yl)oxy)-6-cyanophenyl)acetic acid]"
5,< 1000,"CCS(=O)(=O)N1CCC(n2nc(COc3ccccc3CC(=O)O)c3cc(-c4ccc5ccnc(N)c5c4)ccc32)C1 (stereo not shown) [Compound 312c, 2-(2-((5-(1-aminoisoquinolin-7-yl)-1-(1-(ethylsulfonyl)pyrrolidin-3-yl)-1H-indazol-3-yl)methoxy)phenyl)acetic acid]"
6,< 1000,"Cc1cccc(OC2CC3(CCN(S(C)(=O)=O)CC3)c3ccc(-c4cccc5c(N)nccc45)cc32)c1CC(=O)O (stereo not shown) [Compound 449b, 2-(2-((5-(1-aminoisoquinolin-5-yl)-1′-(methylsulfonyl)-2,3-dihydrospiro[indene-1,4′-piperidin]-3-yl)oxy)-6-methylphenyl)acetic acid]"
7,< 1000,"COc1ccc(OCc2nn(C3CCC3)c3ccc(-c4ccc5ccnc(N)c5c4)cc23)c(CC(=O)O)c1 [Compound 170c, 2-(2-((5-(1-aminoisoquinolin-7-yl)-1-cyclobutyl-1H-indazol-3-yl)methoxy)-5-methoxyphenyl)acetic acid]"
8,< 1000,"CC(C)CCN1CC(n2nc(COc3ccccc3CC(=O)O)c3cc(-c4cccc5c(N)nccc45)ccc32)C1 [Compound 144c, 2-(2-((5-(1-aminoisoquinolin-5-yl)-1-(1-isopentylazetidin-3-yl)-1H-indazol-3-yl)methoxy)phenyl)acetic acid]"
9,< 1000,"CCOC(=O)N1CCC2(CC1)CC(Oc1cccc(C)c1CC(=O)O)c1cc(-c3cccc4c(N)nccc34)ccc12 (stereo not shown) [Compound 405b, 2-(2-((5-(1-aminoisoquinolin-5-yl)-1′-(ethoxycarbonyl)-2,3-dihydrospiro[indene-1,4′-piperidin]-3-yl)oxy)-6-methylphenyl)acetic acid]"
10,< 1000,"COc1c(C(=N)N)cccc1-c1ccc2c(c1)c(COc1ccccc1CC(=O)O)nn2C(C)C [Compound 84f, 2-(2-((5-(3-carbamimidoyl-2-methoxyphenyl)-1-isopropyl-1H-indazol-3-yl)methoxy)phenyl)acetic acid]"
11,< 1000,"COCCN1CC(Cn2nc(COc3ccccc3CC(=O)O)c3cc(-c4ccc5ccnc(N)c5c4)ccc32)C1 [Compound 306c, 2-(2-((5-(1-aminoisoquinolin-7-yl)-1-((1-(2-methoxyethyl)azetidin-3-yl)methyl)-1H-indazol-3-yl)methoxy)phenyl)acetic acid]"
12,< 1000,"Cc1cccc(OCc2cn(C3CCOC3)c3ncc(-c4cccc5c(N)nccc45)cc23)c1CC(=O)O (stereo not shown) [Compound 294c, 2-(2-((5-(1-aminoisoquinolin-5-yl)-1-(tetrahydrofuran-3-yl)-1H-pyrrolo[2,3-b]pyridin-3-yl)methoxy)-6-methylphenyl)acetic acid]"
13,< 1000,"CCCN1CCC2(CC1)C[C@@H](Oc1ccccc1CC(=O)O)c1cc(-c3ccc4ccnc(N)c4c3)ccc12 [Compound 416c, (R)-2-(2-((5-(1-aminoisoquinolin-7-yl)-1′-propyl-2,3-dihydrospiro[indene-1,4′-piperidin]-3-yl)oxy)phenyl)acetic acid]"
14,< 1000,"COc1ccc(CC(=O)O)c(O[C@@H]2CCc3ccc(-c4cccc5c(N)nccc45)cc32)c1 [Compound 420b, (R)-2-(2-((6-(1-aminoisoquinolin-5-yl)-2,3-dihydro-1H-inden-1-yl)oxy)-4-methoxyphenyl)acetic acid]"
15,< 1000,"COc1ccc(CC(=O)O)c(OCc2nn(C3CCC3)c3ccc(-c4cccc5c(N)nccc45)cc23)c1 [Compound 169c, 2-(2-((5-(1-aminoisoquinolin-5-yl)-1-cyclobutyl-1H-indazol-3-yl)methoxy)-4-methoxyphenyl)acetic acid]"
16,< 1000,"Nc1nccc2ccc(-c3ccc4c(c3)c(COc3ccccc3CC(=O)O)nn4C3CC(F)(F)C3)cc12 [Compound 11e, 2-(2-((5-(1-aminoisoquinolin-7-yl)-1-(3,3-difluorocyclobutyl)-1H-indazol-3-yl)methoxy)phenyl)acetic acid]"
